Results as given in PubChem BioAssay AID1918999 (Molecular Pharmacology Branch, DTP, NCI, 2023).
pIC50: −log10 of the molar value.

Test system: 556581-035-R-J1-PDC complex spheroid growth
Assay: Anticancer human tumor 556581-035-R-J1-PDC patient-derived ovarian carcinoma cell line growth inhibition [AhR]
Settings: for pIC50: curve of first compound; for viability, T/C: stronger effect = lower value
Excerpt: Multicellular complex tumor spheroid response to aryl hydrocarbon receptor antagonists in combination with a variety of drugs and investigational agents in selected tumor cell lines
The current study was undertaken to assess response to aryl hydrocarbon receptor antagonists in combination with standard-of-care drugs and investigational agents in solid tumor complex spheroid models. Complex spheroids include a stromal component modeled by human endothelial cells (HUVEC) and fibroblasts modeled by human mesenchymal stem cells (MSCs). The concentration ranges selected for each drug and investigational agent were based upon clinically achievable concentrations if the clinical Cmax of the agent was known.
Compounds. The drugs and investigational agents: BAY 2416964 (NSC825713), GNF351 (NSC835774), CH-223191 (NSC835775), CPI-455 (NSC825282), aza-TdCyd (NSC777586), decitabine (NSC127716), belinostat (NSC758774), entinostat (NSC756642), pevonedistat (NSC761192), tazemetostat (NSC777109), talazoparib (NSC765396), olaparib (NSC753686), selinexor (NSC780203), nedisertib (M3814, NSC802822), bortezomib (NSC756655), venetoclax (NSC766270), doxorubicin (NSC123127), elimusertib (BAY189344, NSC800525), ceralasertib (AZD6738, NSC777638), TAK-243 (NSC785004), alisertib (NSC759677), etoposide (NSC141540), topotecan (NSC609699), eribulin (NSC707389), gemcitabine (NSC613327), carboplatin (NSC241240), cisplatin (NSC119875), and SN-38 (NSC673596) were obtained from the National Cancer Institute (NCI) Developmental Therapeutics Program Chemical Repository (32). The FDA-approved anticancer drug set is available from the Developmental Therapeutics Program at https://dtp.cancer.gov/organization/dscb/obtaining/available plates.htm. […] The stock solutions were prepared in dimethyl sulfoxide (DMSO, Sigma-Aldrich, St. Louis, MO, cat. D2650), except for the platinum compounds which were prepared in saline (Quality Biological, Gaithersburg, MD, cat. 114-055-101), at 800-fold the tested concentration and stored at -70 degrees C prior to their use. All drugs and investigational agents were tested over a range starting from a high concentration at or near the clinical Cmax and decreasing in half-log increments. If the clinical Cmax for an agent had not been determined, the highest concentration tested was 10 microM (Table 1).
Cell Culture. All cells were maintained in an incubator at 37 degrees C and 5% CO2 with 95% humidity. The PDC lines were cultured according to standard operating procedures established by the NCI PDMR (https://pdmr.cancer.gov). Briefly, all PDCs were thawed and cultured in Matrigel-coated flasks prepared with a working solution of 1X Ham's F-12 nutrient mix, without supplementation (Invitrogen, Waltham, MA, cat. 11765054), 100 U/mL penicillin-streptomycin (Invitrogen, cat. 15140122), and 2.5% Matrigel (Corning Inc., Corning, NY, cat. 354248) for the first three passages. All PDCs were cultured in complete DMEM/F-12 media containing advanced DMEM/F-12 (Invitrogen, cat. 12634028), 4.9% defined fetal bovine serum, heat inactivated (HyClone Laboratories Inc., Logan, UT, cat. SH30070.03HI), 389 ng/mL hydrocortisone (Sigma-Aldrich, cat. H4001), 9.7 ng/mL human EGF recombinant protein (Invitrogen, cat. PHG0313), 23.4 microg/mL adenine (Sigma-Aldrich, cat. A2786), 97.3 U/mL penicillin-streptomycin (Invitrogen, cat. 15140122), 1.9 mM L-glutamine (Invitrogen, cat. 25030081), and 9.7 microM Y-27632 dihydrochloride (Tocris Bioscience, Bristol, United Kingdom, cat. 1254). The PDCs were cultured in complete DMEM/F12 media without 10 microM Y-27632 dihydrochloride for at least two passages prior to the screen. The established cell lines NCI-H1341 and […] were cultured in DMEM/F-12, HEPES (Invitrogen, cat. 11330032), 5% defined fetal bovine serum (HyClone Laboratories Inc., cat. SH30070.03), ITS premix universal culture supplement [insulin (5 microg/mL), transferrin (5 microg/mL), and selenious acid (5 ng/mL)] […]
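For viability, T/C in this document: compound exposure lasted 7 days; 100% = DMSO vehicle control growth.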

pIC50 (second compound 0.1 µM): < 5.00
pIC50 (second compound 0.316 µM): < 5.00
pIC50 (second compound 1 µM): < 5.00
pIC50 (second compound 3.16 µM): < 5.00
pIC50 (second compound 10 µM): 5.57
Structure (SMILES): NS(=O)(=O)OCC1CC(n2ccc3c(NC4CCc5ccccc54)ncnc32)CC1O (stereo not given) + Cc1cncc(-c2nc(NCCc3c[nH]c4ccccc34)c3ncn(C(C)C)c3n2)c1
viability, T/C (second compound 0.1 µM, first compound 0.0316 µM): 109%
viability, T/C (second compound 0.1 µM, first compound 0.1 µM): 102%
viability, T/C (second compound 0.1 µM, first compound 0.316 µM): 95.9%
viability, T/C (second compound 0.1 µM, first compound 1 µM): 90.5%
viability, T/C (second compound 0.1 µM, first compound 3.16 µM): 81.1%
viability, T/C (second compound 0.1 µM, first compound 10 µM): 62.5%
viability, T/C (second compound 0.316 µM, first compound 0.0316 µM): 98.1%
viability, T/C (second compound 0.316 µM, first compound 0.1 µM): 104%
viability, T/C (second compound 0.316 µM, first compound 0.316 µM): 92.7%
viability, T/C (second compound 0.316 µM, first compound 1 µM): 85.8%
viability, T/C (second compound 0.316 µM, first compound 3.16 µM): 72.7%
viability, T/C (second compound 0.316 µM, first compound 10 µM): 62.2%
viability, T/C (second compound 1 µM, first compound 0.0316 µM): 112%
viability, T/C (second compound 1 µM, first compound 0.1 µM): 120%
viability, T/C (second compound 1 µM, first compound 0.316 µM): 87.7%
viability, T/C (second compound 1 µM, first compound 1 µM): 81.6%
viability, T/C (second compound 1 µM, first compound 3.16 µM): 74%
viability, T/C (second compound 1 µM, first compound 10 µM): 63.8%
viability, T/C (second compound 3.16 µM, first compound 0.0316 µM): 99.9%
viability, T/C (second compound 3.16 µM, first compound 0.1 µM): 119%
viability, T/C (second compound 3.16 µM, first compound 0.316 µM): 96.4%
viability, T/C (second compound 3.16 µM, first compound 1 µM): 84.8%
viability, T/C (second compound 3.16 µM, first compound 3.16 µM): 70.5%
viability, T/C (second compound 3.16 µM, first compound 10 µM): 49.5%
viability, T/C (second compound 10 µM, first compound 0.0316 µM): 87.8%
viability, T/C (second compound 10 µM, first compound 0.1 µM): 95.5%
viability, T/C (second compound 10 µM, first compound 0.316 µM): 71.9%
viability, T/C (second compound 10 µM, first compound 1 µM): 71%
viability, T/C (second compound 10 µM, first compound 3.16 µM): 45.6%
viability, T/C (second compound 10 µM, first compound 10 µM): 27.6%
